Structures are written as SMILES. Where a name gives a salt, the structure may show the parent alone.

The record followed here is patent US9174968B2, “Pyrimidinone compounds for use in the treatment of diseases or conditions mediated by LP-PLA2” (GLAXO GROUP LIMITED, priority 2010, dated 2015).

The target in this experiment is T1, Lp-PLA2 from plasma (pooled human plasma) (Homo sapiens, UniProt Q13093).
T1 construct: from tissue; host or cells: pooled human plasma
T1 sequence (Q13093 22-441): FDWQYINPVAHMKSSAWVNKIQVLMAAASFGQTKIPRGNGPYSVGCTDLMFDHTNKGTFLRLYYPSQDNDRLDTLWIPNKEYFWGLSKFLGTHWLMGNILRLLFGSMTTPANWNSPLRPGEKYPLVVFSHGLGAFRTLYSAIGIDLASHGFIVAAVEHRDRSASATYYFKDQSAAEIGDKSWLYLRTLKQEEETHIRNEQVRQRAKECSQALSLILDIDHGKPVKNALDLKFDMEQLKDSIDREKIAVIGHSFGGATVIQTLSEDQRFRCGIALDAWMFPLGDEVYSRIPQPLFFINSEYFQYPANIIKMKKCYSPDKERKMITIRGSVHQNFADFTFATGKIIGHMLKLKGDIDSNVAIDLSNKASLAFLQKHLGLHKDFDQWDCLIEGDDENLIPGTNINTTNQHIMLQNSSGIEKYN
Description: Lp-PLA2 human plasma assay (Thio-PAF assay). It is filed as biochemical. The note with it: read-out: pIC50 in the thio-PAF assay (converted). An excerpt:
(3) Lipoprotein-Associated Phospholipase A2 (Lp-PLA2) Human Plasma Assay (Also Referred to as “Thio-PAF Assay”)
The human plasma assay utilizes a thioester analog of PAF (phosphatidylcholine), where hydrolysis yields to the formation of a phospholipid containing a free thiol group. The amount of thiol is quantitated continuously by reacting with CPM (7-diethylamino-3-(4′-maleimidylphenyl)-4-methylcoumarin), a maleimide which increases in fluorescence after Michael addition of thiols. This assay may detect the activity of Lp-PLA2 from plasma, as determined by specific inhibition by Lp-PLA2 inhibitors.
The thio-PAF assay was run as a quenched 15 μL assay. Compounds source plate was prepared by making 1:3 (by volume) serial dilution of the compounds into pure DMSO on 384-well microplate. 0.01 μL of compounds on compound source plate were transferred to 384 well Greiner 784076 (black) low-volume plates by ECHO liquid dispenser. 8 μL pooled human plasma, which was previously aliquoted and frozen, was added. Plates were centrifuged for 10 sec at 500 rpm. After 30 minutes preincubation, 2 μL of substrate (2.5 mM thio-PAF, 3.2 mM NEM (N-ethylmaleimide) [made fresh daily in DMSO], and 32 μM CPM [from a DMSO stock] in assay buffer of 50 mM HEPES, pH7.4, 150 mM NaCl, 1 mM CHAPS was added to 384 well Greiner 784076 (black) low-volume plates by BRAVO liquid handling station. Plates were centrifuged for 10 sec at 500 rpm. Plate was covered to protect from light and incubated for 2 min at room temperature. Reaction was quenched with 5 μL of 5% aqueous trifluoroacetic acid (TFA). Plates were covered to protect from light and incubated for 40 min at room temperature. Plates were read at ex: 380/em: 485 using-Envision microplate reader. PIC50 data, curve and QC analysis was conducted by using XLFit module in Excel.
All exemplified compounds of the present invention were tested in thio-PAF assay or similar assay as described above.

`CCc1c[nH]c(OCCc2ccc(Oc3ccc(Cl)c(C)c3)cc2)nc1=O` [E183, 2-[(2-{4-[(4-chloro-3-methylphenyl)oxy]phenyl}ethyl)oxy]-5-ethyl-4(1H)-pyrimidinone]: the IC50 is over 10 µM.

On to `O=C(O)Cc1c[nH]c(OCCc2ccc(Oc3ccc(Cl)c(C(F)(F)F)c3)cc2)nc1=O` [E131, (2-{[2-(4-{[4-chloro-3-(trifluoromethyl)phenyl]oxy}phenyl)ethyl]oxy}-4-oxo-1,4-dihydro-5-pyrimidinyl)acetic acid], for which the IC50 is over 10 µM.

For `COc1ncc(Cc2c[nH]c(OCCc3ccc(Oc4ncc(Cl)cn4)cc3)nc2=O)cn1` [E145, 2-(4-((5-chloropyrimidin-2-yl)oxy)phenethoxy)-5-((2-methoxypyrimidin-5-yl)methyl)pyrimidin-4(1H)-one, Trifluoroacetic acid salt], the IC50 is over 10 µM.

Consider `COc1ncc(Cc2c[nH]c(SCc3ccc(Oc4ccc(F)c(C(F)(F)F)c4)c(C#N)c3)nc2=O)cn1` [E89, 2-{[4-fluoro-3-(trifluoromethyl)phenyl]oxy}-5-{[(5-{[2-(methyloxy)-5-pyrimidinyl]methyl}-4-oxo-1,4-dihydro-2-pyrimidinyl)thio]methyl}benzonitrile], for which the IC50 was over 10 µM.

With `Cn1cc(Cc2c[nH]c(CCc3ccc(Oc4cccc(C(F)(F)F)c4)cc3)nc2=O)cn1` [E50, 5-((1-methyl-1H-pyrazol-4-yl)methyl)-2-(4-(3-(trifluoromethyl)phenoxy)phenethyl)pyrimidin-4(1H)-one], the IC50 is over 10 µM.

As for `CCc1c[nH]c(OCCc2ccc(Oc3ccc(Cl)c(C(F)(F)F)c3)cc2)nc1=O` [E27, 2-{[2-(4-{[4-Chloro-3-(trifluoromethyl)phenyl]oxy}phenyl)ethyl]oxy}-5-ethyl-4(1H)-pyrimidinone], the IC50 is over 10 µM.

Turning to `CCc1c[nH]c(SCc2ccc(Oc3ccc(Cl)c(C(F)(F)F)c3)cc2)nc1=O` [E63, 2-{[(4-{[4-chloro-3-(trifluoromethyl)phenyl]oxy}phenyl)methyl]thio}-5-ethyl-4(1H)-pyrimidinone], the IC50 was over 10 µM.

Take `Cc1cccc(Oc2ccc(CCOc3nc(=O)c(Cc4cnn(C)c4)c[nH]3)cc2)n1` [E158, 5-[(1-methyl-1H-pyrazol-4-yl)methyl]-2-[(2-{4-[(6-methyl-2-pyridinyl)oxy]phenyl}ethyl)oxy]-4(1H)-pyrimidinone]: the IC50 was over 10 µM.

Consider `CCc1cn(C)c(OCCc2ccc(Oc3ccc(Cl)c(C)c3)cc2)nc1=O` [E184, 2-[(2-{4-[(4-chloro-3-methylphenyl)oxy]phenyl}ethyl)oxy]-5-ethyl-1-methyl-4(1H)-pyrimidinone], for which the IC50 is over 10 µM.

In the case of `CN(CCc1ccc(Oc2ccc(F)cc2)cc1)c1nc(=O)c(Cc2cncnc2)c[nH]1` [E192, 2-{2-[4-(4-fluoro-phenoxy)phenyl]-ethyl-methyl-amino}-5-pyrimidin-5-ylmethyl-1H-pyrimidin-4-one], the IC50 is over 10 µM.

As to `CCc1c[nH]c(OCCc2ccc(Oc3cc(Cl)cc(C(F)(F)F)c3)cc2)nc1=O` [E163, 2-{[2-(4-{[3-chloro-5-(trifluoromethyl)phenyl]oxy}phenyl)ethyl]oxy}-5-ethyl-4(1H)-pyrimidinone], the IC50 is over 10 µM.

Take `Cn1cc(Cc2c[nH]c(SCc3ccc(Oc4ccc(Cl)c(C(F)(F)F)c4)c(C#N)c3)nc2=O)c2ccccc21` [E81, 2-(4-chloro-3-(trifluoromethyl)phenoxy)-5-(((5-((1-methyl-1H-indol-3-yl)methyl)-4-oxo-1,4-dihydropyrimidin-2-yl)thio)methyl)benzonitrile]: the IC50 is over 10 µM.

As for `CCc1c[nH]c(OCCc2cc(F)c(Oc3ccc(Cl)c(C(F)(F)F)c3)c(F)c2)nc1=O` [E125, 2-{[2-(4-{[4-chloro-3-(trifluoromethyl)phenyl]oxy}-3,5-difluorophenyl)ethyl]oxy}-5-ethyl-4(1H)-pyrimidinone], the IC50 was over 10 µM.

As for `CCc1c[nH]c(OCCc2ccc(Oc3ccc(Cl)c(C(F)(F)F)c3)c(F)c2)nc1=O` [E173, 2-{[2-(4-{[4-chloro-3-(trifluoromethyl)phenyl]oxy}-3-fluorophenyl)ethyl]oxy}-5-ethyl-4(1H)-pyrimidinone], the IC50 was over 10 µM.

With `CCc1c[nH]c(SCc2ccc(Oc3cccc(C(F)(F)F)c3)c(C#N)c2)nc1=O` [E98, 5-{[(5-ethyl-4-oxo-1,4-dihydro-2-pyrimidinyl)thio]methyl}-2-{[3-(trifluoromethyl)phenyl]oxy}benzonitrile], the IC50 is over 10 µM.

As to `CCc1c[nH]c(OCCc2ccc(Oc3ccc(Cl)c(OC(F)(F)F)c3)cc2)nc1=O` [E179], the IC50 was over 10 µM.

Take `Cc1c[nH]c(NCCc2ccc(Oc3ccc(Cl)c(C(F)(F)F)c3)cc2)nc1=O` [E198, 2-{2-[4-(4-Chloro-3-trifluoromethyl-phenoxy)-phenyl]-ethylamino}-5-methyl-1H-pyrimidin-4-one]: the IC50 was over 10 µM.

As for `O=c1nc(CCc2ccc(Oc3ccc(F)cc3)cc2)[nH]cc1Cc1cncnc1` [E39, 2-(4-(4-fluorophenoxy)phenethyl)-5-(pyrimidin-5-ylmethyl)pyrimidin-4(1H)-one], the IC50 was over 10 µM.

For `N#Cc1ccc(Cc2c[nH]c(SCc3ccc(Oc4ccc(Cl)c(C(F)(F)F)c4)cc3)nc2=O)cc1` [E62, 4-[(2-{[(4-{[4-chloro-3-(trifluoromethyl)phenyl]oxy}phenyl)methyl]thio}-4-oxo-1,4-dihydro-5-pyrimidinyl)methyl]benzonitrile], the IC50 is over 10 µM.

On to `CCc1cn(C)c(OCCc2cc(F)c(Oc3cnc(C(F)(F)F)nc3)c(F)c2)nc1=O` [E171, 2-(3,5-difluoro-4-((2-(trifluoromethyl)pyrimidin-5-yl)oxy)phenethoxy)-5-ethyl-1-methylpyrimidin-4(1H)-one], for which the IC50 was over 10 µM.

Turning to `CCc1c[nH]c(OCCc2ccc(Oc3cccc(C)n3)cc2)nc1=O` [E160, 5-ethyl-2-[(2-{4-[(6-methyl-2-pyridinyl)oxy]phenyl}ethyl)oxy]-4(1H)-pyrimidinone], the IC50 is over 10 µM.

`CCc1c[nH]c(OCCc2ccc(Oc3ccc(C(F)(F)F)nc3)cc2)nc1=O` [E140, 5-ethyl-2-{[2-(4-{[6-(trifluoromethyl)-3-pyridinyl]oxy}phenyl)ethyl]oxy}-4(1H)-pyrimidinone]: the IC50 was over 10 µM.

As to `COc1ncc(Cc2c[nH]c(SCc3ccc(Oc4ccc(F)cc4)cc3)nc2=O)cn1` [E52, 2-((4-(4-fluorophenoxy)benzyl)thio)-5-((2-methoxypyrimidin-5-yl)methyl)pyrimidin-4(1H)-one], the IC50 is over 10 µM.

Regarding `CCc1cn(C)c(OCCc2ccc(Oc3cnc(C(F)(F)F)nc3)cc2)nc1=O` [E144, 5-ethyl-1-methyl-2-(4-((2-(trifluoromethyl)pyrimidin-5-yl)oxy)phenethoxy)pyrimidin-4(1H)-one, trifluoroacetic acid salt], the IC50 is over 10 µM.

`N#Cc1ccc(Cc2c[nH]c(SCCc3ccc(Oc4ccc(Cl)c(C(F)(F)F)c4)cc3)nc2=O)cc1` [E114, 4-[(2-{[2-(4-{[4-chloro-3-(trifluoromethyl)phenyl]oxy}phenyl)ethyl]thio}-4-oxo-1,4-dihydro-5-pyrimidinyl)methyl]benzonitrile]: the IC50 was over 10 µM.

Consider `CCc1c[nH]c(OCCc2cc(F)c(Oc3cnc(C(F)(F)F)nc3)c(F)c2)nc1=O` [E170, 2-(3,5-difluoro-4-((2-(trifluoromethyl)pyrimidin-5-yl)oxy)phenethoxy)-5-ethylpyrimidin-4(1H)-one], for which the IC50 is over 10 µM.

`O=c1nc(OCCc2ccc(Oc3ccc(Cl)c(C(F)(F)F)c3)cc2)[nH]cc1Cc1c(O)cc(F)cc1F` [E19, 2-{[2-(4-{[4-Chloro-3-(trifluoromethyl)phenyl]oxy}phenyl)ethyl]oxy}-5-[(2,4-difluoro-6-hydroxyphenyl)methyl]-4(1H)-pyrimidinone]: the IC50 is over 10 µM.

Turning to `CCc1cn(C)c(OCCc2ccc(Oc3ccc(C(F)(F)F)nc3)cc2)nc1=O` [E142, 5-ethyl-1-methyl-2-{[2-(4-{[6-(trifluoromethyl)-3-pyridinyl]oxy}phenyl)ethyl]oxy}-4(1H)-pyrimidinone], the IC50 is over 10 µM.

Take `O=c1nc(NCCc2ccc(Oc3ccc(Cl)c(C(F)(F)F)c3)cc2)[nH]cc1CN1CCCC1` [E215, 2-{2-[4-(4-chloro-3-trifluoromethyl-phenoxy)-phenyl]-ethylamino}-5-pyrrolidin-1-ylmethyl-1H-pyrimidin-4-one]: the IC50 is over 10 µM.
